The record followed here is patent publication US11787785B2 (NOVARTIS AG, priority 2021, dated 2023).

A value given as a limit tells only on which side of the number the result lay.

In this assay the target is T1, WIZ protein (HiBit-WIZ fusion protein) (Homo sapiens, UniProt O95785+Q96SW2).
T1 construct: expressed in transfected cells
Briefly: Quantification of WIZ protein levels in HiBit tag fusion protein assay (WIZ HiBit assay in 293T cells). It is filed as cell-based. The following applies: for Dmax at 25 µM / remaining activity at 25 µM: HEK-293T, 293T cells; for Dmax at 25 µM: 100 − Amax, read-out: % degradation of WIZ (100 − Amax); for remaining activity at 25 µM: DMSO-normalized, curve-fitted percentage of WIZ-HiBit remaining at 25 uM, read-out: WIZ Amax; for DC50: WIZ HiBit assay in 293T cells, 10-point, 5-fold dose response, highest concentration 25 μM, about 18 hours, read-out: WIZ AC50. The essentials: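 Luminescence after LgBit complementation quantified remaining HiBit-WIZ in lysates of single-copy stable 293T lines. Cells dosed ~18 h at 37 °C with 10-point, 5-fold dilutions (highest 25 μM); DMSO set to 100%, fitted curve gave % remaining at 25 μM (Amax).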
Background: The HiBiT peptide binds its large partner to form an active luciferase.

T1 sequence (O95785 whole entry, the tested form may be a part): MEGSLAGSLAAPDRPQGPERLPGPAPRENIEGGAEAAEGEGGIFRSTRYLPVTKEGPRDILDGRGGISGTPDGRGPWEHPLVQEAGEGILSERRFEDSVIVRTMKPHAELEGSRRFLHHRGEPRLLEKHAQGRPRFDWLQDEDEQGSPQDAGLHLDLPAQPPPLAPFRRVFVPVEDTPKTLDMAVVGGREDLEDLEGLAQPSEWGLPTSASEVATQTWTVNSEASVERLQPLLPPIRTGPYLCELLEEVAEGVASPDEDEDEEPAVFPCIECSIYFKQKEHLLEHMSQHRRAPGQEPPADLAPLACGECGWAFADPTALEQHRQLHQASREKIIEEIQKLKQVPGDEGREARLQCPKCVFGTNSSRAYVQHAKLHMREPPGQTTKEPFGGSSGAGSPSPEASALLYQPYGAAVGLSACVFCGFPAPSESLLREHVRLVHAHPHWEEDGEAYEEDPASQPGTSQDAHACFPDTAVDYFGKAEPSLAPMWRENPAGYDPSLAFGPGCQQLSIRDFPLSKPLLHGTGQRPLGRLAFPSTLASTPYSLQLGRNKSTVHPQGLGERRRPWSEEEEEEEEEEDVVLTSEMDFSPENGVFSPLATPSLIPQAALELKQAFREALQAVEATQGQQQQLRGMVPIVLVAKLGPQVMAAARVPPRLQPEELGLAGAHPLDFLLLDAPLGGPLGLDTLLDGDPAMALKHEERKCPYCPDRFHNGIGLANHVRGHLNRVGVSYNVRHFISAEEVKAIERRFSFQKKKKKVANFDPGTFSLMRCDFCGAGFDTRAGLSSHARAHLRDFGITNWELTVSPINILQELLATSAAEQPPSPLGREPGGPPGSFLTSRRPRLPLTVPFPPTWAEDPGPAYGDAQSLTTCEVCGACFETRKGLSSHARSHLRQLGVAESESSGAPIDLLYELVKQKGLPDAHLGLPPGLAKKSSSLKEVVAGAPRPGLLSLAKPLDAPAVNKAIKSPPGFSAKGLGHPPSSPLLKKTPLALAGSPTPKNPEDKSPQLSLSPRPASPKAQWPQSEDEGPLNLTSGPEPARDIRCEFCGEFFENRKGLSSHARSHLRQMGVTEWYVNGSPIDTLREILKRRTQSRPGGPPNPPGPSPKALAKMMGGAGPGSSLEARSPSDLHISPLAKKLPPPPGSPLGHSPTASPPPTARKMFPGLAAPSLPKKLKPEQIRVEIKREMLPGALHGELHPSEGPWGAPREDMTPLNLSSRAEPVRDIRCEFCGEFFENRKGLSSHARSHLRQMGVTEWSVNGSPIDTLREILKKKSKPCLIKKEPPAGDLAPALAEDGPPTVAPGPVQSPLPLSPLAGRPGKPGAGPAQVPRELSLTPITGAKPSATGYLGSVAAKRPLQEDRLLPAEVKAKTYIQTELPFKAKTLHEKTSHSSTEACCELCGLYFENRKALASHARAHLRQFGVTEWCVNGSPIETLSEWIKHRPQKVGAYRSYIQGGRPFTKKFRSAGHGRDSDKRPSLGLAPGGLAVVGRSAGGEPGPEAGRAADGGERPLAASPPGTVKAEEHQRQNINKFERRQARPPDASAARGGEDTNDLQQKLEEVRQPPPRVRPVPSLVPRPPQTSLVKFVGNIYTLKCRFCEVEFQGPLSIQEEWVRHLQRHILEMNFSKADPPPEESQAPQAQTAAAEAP
T1 sequence (Q96SW2 whole entry, the tested form may be a part): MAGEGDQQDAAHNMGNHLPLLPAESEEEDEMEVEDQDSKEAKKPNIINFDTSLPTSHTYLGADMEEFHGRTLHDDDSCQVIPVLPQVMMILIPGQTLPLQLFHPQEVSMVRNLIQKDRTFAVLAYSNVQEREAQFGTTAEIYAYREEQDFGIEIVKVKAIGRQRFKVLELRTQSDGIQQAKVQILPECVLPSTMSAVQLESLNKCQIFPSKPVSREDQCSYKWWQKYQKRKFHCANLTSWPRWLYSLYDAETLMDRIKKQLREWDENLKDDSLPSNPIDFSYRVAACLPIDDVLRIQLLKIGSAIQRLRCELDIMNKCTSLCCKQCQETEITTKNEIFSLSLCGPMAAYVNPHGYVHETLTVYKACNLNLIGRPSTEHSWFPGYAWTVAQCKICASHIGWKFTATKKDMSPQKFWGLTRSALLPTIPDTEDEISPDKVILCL
T1 sequence (Q16531 whole entry partner, the tested form may be a part): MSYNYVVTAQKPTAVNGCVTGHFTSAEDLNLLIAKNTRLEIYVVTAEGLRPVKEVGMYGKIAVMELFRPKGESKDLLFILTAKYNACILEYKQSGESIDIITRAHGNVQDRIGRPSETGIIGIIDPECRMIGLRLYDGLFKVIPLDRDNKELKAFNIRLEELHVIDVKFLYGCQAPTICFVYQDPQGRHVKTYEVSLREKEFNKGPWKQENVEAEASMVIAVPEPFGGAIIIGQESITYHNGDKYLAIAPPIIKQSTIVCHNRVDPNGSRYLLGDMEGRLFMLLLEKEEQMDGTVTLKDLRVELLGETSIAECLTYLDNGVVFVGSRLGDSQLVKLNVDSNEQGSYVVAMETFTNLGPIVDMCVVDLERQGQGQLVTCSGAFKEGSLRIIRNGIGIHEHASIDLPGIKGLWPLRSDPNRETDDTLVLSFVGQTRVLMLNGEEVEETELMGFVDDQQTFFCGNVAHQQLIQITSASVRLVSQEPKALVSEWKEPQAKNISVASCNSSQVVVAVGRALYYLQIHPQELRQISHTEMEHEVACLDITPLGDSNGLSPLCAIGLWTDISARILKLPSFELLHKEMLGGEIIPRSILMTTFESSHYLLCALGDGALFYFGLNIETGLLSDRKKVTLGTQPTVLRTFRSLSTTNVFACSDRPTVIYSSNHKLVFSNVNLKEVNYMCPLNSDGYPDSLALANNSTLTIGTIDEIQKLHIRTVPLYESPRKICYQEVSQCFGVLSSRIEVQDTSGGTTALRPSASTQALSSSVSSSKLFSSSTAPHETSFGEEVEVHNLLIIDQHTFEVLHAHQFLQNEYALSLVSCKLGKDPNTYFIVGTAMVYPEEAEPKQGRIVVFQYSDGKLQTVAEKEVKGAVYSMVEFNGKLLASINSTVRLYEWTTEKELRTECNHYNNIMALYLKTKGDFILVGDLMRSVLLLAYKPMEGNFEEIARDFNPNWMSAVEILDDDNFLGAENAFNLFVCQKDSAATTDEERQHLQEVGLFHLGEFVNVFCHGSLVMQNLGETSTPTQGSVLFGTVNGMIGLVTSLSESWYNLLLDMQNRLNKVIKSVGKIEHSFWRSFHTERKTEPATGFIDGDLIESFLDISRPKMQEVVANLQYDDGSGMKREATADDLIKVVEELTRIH

Turning to `CC(C)(C1CCC1)N1CCC(Cc2ccn3ncc(N4CCC(=O)NC4=O)c3c2)CC1` [Example 138, 1-(5-((1-(2-cyclobutylpropan-2-yl)piperidin-4-yl)methyl)pyrazolo[1,5-a]pyridin-3-yl)dihydropyrimidine-2,4(1H,3H)-dione], the Dmax at 25 µM stood at 80%, the remaining activity at 25 µM came to 20% and the DC50 was 100 nM.
Take `C[C@H]1C[C@H](Cc2ccn3ncc(-n4ccc(=O)[nH]c4=O)c3c2)CCN1C(=O)C1CC1` [Example 355, 1-(5-(((2S,4R)-1-(cyclopropanecarbonyl)-2-methylpiperidin-4-yl)methyl)pyrazolo[1,5-a]pyridin-3-yl)pyrimidine-2,4(1H,3H)-dione]: the Dmax at 25 µM came to 82%, the remaining activity at 25 µM was determined as 18% and the DC50 stood at 183 nM.
Regarding `O=C1CCN(c2cnn3ccc(CN4CCN5CCC[C@@H]5C4)cc23)C(=O)N1` [Example 261, (R)-1-(5-((hexahydropyrrolo[1,2-a]pyrazin-2(1H)-yl)methyl)pyrazolo[1,5-a]pyridin-3-yl)dihydropyrimidine-2,4(1H,3H)-dione], the Dmax at 25 µM is 63%, the remaining activity at 25 µM came to 37% and the DC50 worked out at 417 nM.
Consider `O=C1CCN(c2cnn3ccc(CN4CCN(CC5CCCOC5)CC4)cc23)C(=O)N1` (stereo not drawn) [Example 162], for which the Dmax at 25 µM is 79%, the remaining activity at 25 µM worked out at 21% and the DC50 was 79 nM.
The matching figures for `O=C1CCN(c2cnn3ccc(CC4(F)CCN(CC5CCC5)CC4)cc23)C(=O)N1` [Example 125, 1-(5-((1-(cyclobutylmethyl)-4-fluoropiperidin-4-yl)methyl)pyrazolo[1,5-a]pyridin-3-yl)dihydropyrimidine-2,4(1H,3H)-dione]: 55%, 45% and 596 nM.
Turning to `COC[C@H]1CN(Cc2ccn3ncc(N4CCC(=O)NC4=O)c3c2)CCN1CC1CCCCC1` [Example 244, (R)-1-(5-((4-(cyclohexylmethyl)-3-(methoxymethyl)piperazin-1-yl)methyl)pyrazolo[1,5-a]pyridin-3-yl)dihydropyrimidine-2,4(1H,3H)-dione], the Dmax at 25 µM worked out at 53%, the remaining activity at 25 µM was 47% and the DC50 is 1180 nM.
The matching figures for `C[C@H]1C[C@H](Cc2ccn3ncc(N4CCC(=O)NC4=O)c3c2)CCN1C(=O)C1CCN(C)CC1` [Example 290]: 54%, 46% and 1700 nM.
Turning to `C[C@H]1CN(Cc2ccn3ncc(N4CCC(=O)NC4=O)c3c2)CCN1C1CC2(CCC2)C1` [Example 335], the Dmax at 25 µM is 88%, the remaining activity at 25 µM turned out to be 12% and the DC50 was 6 nM.
Regarding `O=C1CCN(c2cnn3ccc(CC4CCN(CCC5CCCC5)CC4)cc23)C(=O)N1` [Example 16, 1-(5-((1-(2-cyclopentylethyl)piperidin-4-yl)methyl)pyrazolo[1,5-a]pyridin-3-yl)dihydropyrimidine-2,4(1H,3H)-dione], the Dmax at 25 µM came out at 84%, the remaining activity at 25 µM amounted to 16% and the DC50 worked out at 18 nM.
Taken in the same sequence, the figures for `CC(c1cccc(F)c1)N1CCC(Cc2ccn3ncc(N4CCC(=O)NC4=O)c3c2)CC1` (stereo not drawn) [Example 48, 1-(5-((1-(1-(3-fluorophenyl)ethyl)piperidin-4-yl)methyl)pyrazolo[1,5-a]pyridin-3-yl)dihydropyrimidine-2,4(1H,3H)-dione] were 68%, 32% and 61 nM.
Taken in the same sequence, the figures for `O=C1CCN(c2cnn3ccc(CC4CCN(Cc5cccc(F)c5F)CC4)cc23)C(=O)N1` [Example 53, 1-(5-((1-(2,3-difluorobenzyl)piperidin-4-yl)methyl)pyrazolo[1,5-a]pyridin-3-yl)dihydropyrimidine-2,4(1H,3H)-dione] were 65%, 35% and 37 nM.
`O=C1CCN(c2cnn3ccc(CC4CCN(Cc5cc(F)cc(F)c5)CC4)cc23)C(=O)N1` [Example 44, 1-(5-((1-(3,5-difluorobenzyl)piperidin-4-yl)methyl)pyrazolo[1,5-a]pyridin-3-yl)dihydropyrimidine-2,4(1H,3H)-dione]: the Dmax at 25 µM worked out at 70%, the remaining activity at 25 µM was determined as 30% and the DC50 was 43 nM.
As to `C[C@H]1C[C@H](Cc2ccn3ncc(N4CCC(=O)NC4=O)c3c2)CCN1S(C)(=O)=O` [Example 284], the Dmax at 25 µM was 80%, the remaining activity at 25 µM is 20% and the DC50 came to 18 nM.
`C[C@H]1C[C@@H](Cc2ccn3ncc(N4CCC(=O)NC4=O)c3c2)CCN1CC1CCCCC1` (single isomer, unassigned) [Example 71]: the Dmax at 25 µM was 85%, the remaining activity at 25 µM was 15% and the DC50 worked out at 7 nM.
The matching figures for `C[C@H]1CN(Cc2ccn3ncc(N4CCC(=O)NC4=O)c3c2)CCN1Cc1cccnc1` [Example 208]: 60%, 40% and 580 nM.
The matching figures for `C[C@H]1CN(Cc2ccn3ncc(N4CCC(=O)NC4=O)c3c2)CCN1C(=O)C1CCC1` [Example 344, (S)-1-(5-((4-(cyclobutanecarbonyl)-3-methylpiperazin-1-yl)methyl)pyrazolo[1,5-a]pyridin-3-yl)dihydropyrimidine-2,4(1H,3H)-dione]: 35%, 65% and 1070 nM.
For `O=C1CCN(c2cnn3ccc(CN4CCN(CCC5CCCCC5)CC4)cc23)C(=O)N1` [Example 187, 1-(5-((4-(2-cyclohexylethyl)piperazin-1-yl)methyl)pyrazolo[1,5-a]pyridin-3-yl)dihydropyrimidine-2,4(1H,3H)-dione], the Dmax at 25 µM was determined as 80%, the remaining activity at 25 µM amounted to 20% and the DC50 was found to be 20 nM.
With `C[C@H]1CN(Cc2ccn3ncc(N4CCC(=O)NC4=O)c3c2)CCN1CC1CCCCC1` [Example 192, (S)-1-(5-((4-(cyclohexylmethyl)-3-methylpiperazin-1-yl)methyl)pyrazolo[1,5-a]pyridin-3-yl)dihydropyrimidine-2,4(1H,3H)-dione], the Dmax at 25 µM is 86%, the remaining activity at 25 µM is 14% and the DC50 was found to be 19 nM.
With `CC(c1cccnc1)N1CCC(Cc2ccn3ncc(N4CCC(=O)NC4=O)c3c2)CC1` (stereo not drawn) [Example 21, 1-(5-((1-(1-(pyridin-3-yl)ethyl)piperidin-4-yl)methyl)pyrazolo[1,5-a]pyridin-3-yl)dihydropyrimidine-2,4(1H,3H)-dione], the Dmax at 25 µM is 78%, the remaining activity at 25 µM turned out to be 22% and the DC50 worked out at 25 nM.
The matching figures for `O=C1CCN(c2cnn3ccc(CC4CCN(C(=O)c5ccccc5)CC4)cc23)C(=O)N1` [Example 101]: 33%, 67% and > 25000 nM.
Turning to `C[C@H]1C[C@H](Cc2ccn3ncc(N4CCC(=O)NC4=O)c3c2)CCN1CC1CCCCCC1` [Example 147], the Dmax at 25 µM stood at 90%, the remaining activity at 25 µM is 10% and the DC50 worked out at 5 nM.
As for `O=C1CCN(c2cnn3ccc(CN4C[C@H]5CC[C@@H](C4)N5Cc4cccc(F)c4)cc23)C(=O)N1` [Example 251, 1-(5-(((1R,5S)-8-(3-fluorobenzyl)-3,8-diazabicyclo[3.2.1]octan-3-yl)methyl)pyrazolo[1,5-a]pyridin-3-yl)dihydropyrimidine-2,4(1H,3H)-dione], the Dmax at 25 µM amounted to 18%, the remaining activity at 25 µM stood at 82% and the DC50 worked out at 165 nM.
The matching figures for `Cc1c(F)cccc1CN1CCC(Cc2ccn3ncc(N4CCC(=O)NC4=O)c3c2)CC1` [Example 42, 1-(5-((1-(3-fluoro-2-methylbenzyl)piperidin-4-yl)methyl)pyrazolo[1,5-a]pyridin-3-yl)dihydropyrimidine-2,4(1H,3H)-dione]: 70%, 30% and 26 nM.
As for `C[C@H]1CN(Cc2ccn3ncc(N4CCC(=O)NC4=O)c3c2)CCN1C[C@H]1C[C@@H](F)[C@@H](F)C1` [Example 318, 1-(5-(((S)-4-(((1r,3R,4S)-3,4-difluorocyclopentyl)methyl)-3-methylpiperazin-1-yl)methyl)pyrazolo[1,5-a]pyridin-3-yl)dihydropyrimidine-2,4(1H,3H)-dione], the Dmax at 25 µM was determined as 87%, the remaining activity at 25 µM stood at 13% and the DC50 came to 10 nM.
In the case of `O=C1CCN(c2cnn3ccc(CN4C[C@H]5CC[C@@H](C4)N5CC4CCCCC4)cc23)C(=O)N1` [Example 252, 1-(5-(((1R,5S)-8-(cyclohexylmethyl)-3,8-diazabicyclo[3.2.1]octan-3-yl)methyl)pyrazolo[1,5-a]pyridin-3-yl)dihydropyrimidine-2,4(1H,3H)-dione], the Dmax at 25 µM was 42%, the remaining activity at 25 µM is 58% and the DC50 was 277 nM.
In the case of `C[C@H]1CN(CC2CC(F)(F)C2)CCN1Cc1ccn2ncc(N3CCC(=O)NC3=O)c2c1` [Example 226, (S)-1-(5-((4-((3,3-difluorocyclobutyl)methyl)-2-methylpiperazin-1-yl)methyl)pyrazolo[1,5-a]pyridin-3-yl)dihydropyrimidine-2,4(1H,3H)-dione], the Dmax at 25 µM was 45%, the remaining activity at 25 µM came to 55% and the DC50 stood at 1230 nM.
